Experimental data as given in patent publication US20110178104A1, “Anti-Heparin Compounds” (POLYMEDIX INC., priority 2010, published 2011).
Converted amounts (≈) assume the structure as drawn. “And” between values parts separate entries of the source, which are not always exact repeats. Equal entries are not always repeated.

Assays:
[1] = system: unfractionated heparin (UFH); assay: aPTT clotting assay, UFH 0.2 U/mL in plasma (Example 7); assay type: biochemical; details: UFH 0.2 U/mL in plasma
Experimental: (§1) aPTT clotting Assay. Unfractionated heparin was mixed with plasma at a final concentration of 0.2 U/mL. […] The ACL Elite Hemostasis analyzer (Beckman Coulter™) was used to add aPTT reagent (HemosIL SynthASil) to supplemented plasma. Clotting was initiated by addition of CaCl2 and time to clot was recorded.

enoxaparin [2] = assay: FXa amidolytic assay in human plasma, enoxaparin; assay type: biochemical; details: enoxaparin 10 μg/mL, at a concentration of about 50 μg/mL
fondaparinux (FONDAPX) = assay: FXa chromogenic assay (absence of plasma), fondaparinux; details: fondaparinux 0.02 μg/mL, absence of plasma
enoxaparin (ENOX) = assay: FXa chromogenic assay (absence of plasma), enoxaparin; details: enoxaparin 0.1 μg/mL, absence of plasma
Unfractionated heparin = assay: aPTT clotting assay, UFH 0.4 U/mL in plasma (Example 10); assay type: biochemical; details: unfractionated heparin 0.4 U/mL in plasma; aPTT clotting
Experimental: as §1, with “Assay:” for “Assay.”, “0.4 U/mL (or concentration which increases aPTT time to between 120 and 300 seconds).” for “0.2 U/mL.”

enoxaparin [3] = assay: FXa amidolytic assay (Example 10), enoxaparin; details: read-out: Enox FXa EC50; enoxaparin 0.1 ug/ml; human antithrombin, bovine Factor Xa
[4] = Cytotoxicity colorimetric assay, HepG2; assay type: cell-based, human; details: human, HepG2 cells, one hour in serum-free media
Outline: (§2)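 HepG2 cells (3×10^4/well, MEM + 10% FBS) and NIH/3T3 cells (2×10^4/well, DMEM + 10% BCS) were exposed to compound for 1 h in serum-free medium. Viability read by tetrazolium-to-formazan bioreduction after return to serum medium; EC50 from a four-parameter logistic fit.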

fondaparinux [5] = assay: FXa amidolytic assay (Example 10), fondaparinux; details: for EC50: read-out: Fondap FXa EC50, fondaparinux 0.02 μg/mL, human antithrombin, bovine Factor Xa
[6] = Cytotoxicity colorimetric assay, NIH/3T3; assay type: cell-based, mouse; details: mouse, NIH/3T3 cells, one hour in serum-free media
Outline: as §2

UFH [7] = assay: In vivo neutralization of unfractionated heparin in the rat; details: UFH 100 U/kg IV, 1 mg/kg dose IV
Experimental: The male Sprague-Dawley rats used in this study were obtained from Charles River Laboratories, Raleigh. They were nine-weeks-old at the start of the study and their weights ranged from 279-334 g. Rats were pre-treated with UFH administered by IV injection in a tail vein at 100 U/kg in a dose volume of 1 mL/kg. The rats were then treated with a single IV injection of saline, protamine or the appropriate test compound at doses of 0.25, 0.5 and 1.0 mg/kg. All treatments were dosed in a volume of 1 mL/kg. Blood was collected via the orbital sinus from three rats per group at the following time points after treatment: predose, 1, 3, 10, 30 and 60. At each time point, 1 mL of blood was collected from each animal into a single tube. The blood was analyzed using an AMEX Destiny Plus Coagulation Analyzer for activated partial thromboplastintime (APTT) and anti-Factor Xa.

[8] = system: isolated human erythrocytes; assay: cells; assay type: cell-based; details: for EC50: Homo sapiens, Erythrocyte, 1 h, human RBC, 1 hour at 37° C., read-out: Hemolysis EC50
Outline: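 Test agent was serially diluted two-fold over 0.48–1000 µg/ml and incubated for 1 h at 37 °C with shaking, using erythrocytes from pooled human blood diluted in Tris-buffered saline pH 7.4 (0.22% stock). Hemolysis was measured as supernatant absorbance at 405 nm. A four-parameter logistic equation gave EC50, and melittin served as the positive control.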

UFH [9] = assay: FXa amidolytic assay (Example 10), UFH; details: read-out: Heparin FXa uM EC50; UFH 0.03 units/mL; human antithrombin, bovine Factor Xa
tinzaparin = assay: FXa amidolytic assay (Example 10), tinzaparin; details: read-out: Tinzap FXa EC50; tinzaparin 0.1 ug/ml; human antithrombin, bovine Factor Xa
UFH [10] = assay: FIIa amidolytic assay in human plasma, UFH; assay type: biochemical; details: UFH 4 μg/mL
Experimental: (§3) Eight parts of pooled human plasma was supplemented with 1 part LMWH or UFH at final concentrations of 4 μg/mL, or fondarinux at a final concentration of 1.25 μg/mL. One 1 μL sample of test agent was then added to 9 μL of supplemented plasma (test agent concentration ranges=0.156 to 20 μg/mL) and mixed. The supplemented plasmas were analyzed immediately in clotting and amidolytic assays as described below. All samples were performed in duplicate.
FIIa Amidolytic Assay. Human thrombin was added to supplemented plasma and incubated for 1 minute at 37° C. Spectrozyme TH substrate was added and the optical density change at 405 nm was measured for 30 seconds in a SpectraMax 250 instrument. % factor IIa inhibition was calculated using the following equation:
(§4) % Inhibition=[(ODbaseline−ODsample)/ODbaseline]×100.

UFH [11] = assay: FXa amidolytic assay in human plasma, UFH; assay type: biochemical; details: UFH 4 μg/mL
Experimental: as §3
FXa Amidolytic Assay: Bovine factor Xa was added to supplemented plasma and incubated for 5 minutes at 37° C. Spectrozyme FXa substrate was added and the optical density change at 405 nm was measured for 30 seconds. % factor Xa inhibition is calculated using the following equation:
as §4

fondaparinux [12] = assay: In vivo neutralization of fondaparinux in the rat; details: fondaparinux 0.5 mg/kg IV, test agent 2 and 5 mg/kg IV
Experimental: Compounds were selected to test fondaparinux neutralization in vivo. Rats were pre-treated with fondaparinux administered by IV injection at 0.5 mg/kg. The rats were then treated with a single IV injection of saline, protamine or the PMX compound. Blood was collected via the orbital sinus from three rats per group at the following time points: pre-dose, 1, 3, 10, 30 and 60 min. Plasma samples were prepared for analysis of anti-factor Xa activity using an AMEX Destiny Plus Coagulation Analyzer.

HepG2 cells = assay: Cytotoxicity colorimetric assay, HepG2; assay type: cell-based, human; details: one hour in serum-free media
Outline: as §2

NIH/3T3 cells = assay: Cytotoxicity colorimetric assay, NIH/3T3; assay type: cell-based, mouse; details: one hour in serum-free media
Outline: as §2

[13] = Coagulation properties via ROTEM; details: at fully efficacious doses
blood pressure = assay: Hemodynamic responses in the anesthetized rat; assay type: in vivo
From the text: As a key safety issue for cationic compounds is reduction in blood pressure shortly after administration. To address this hemodynamic issue, a medicinal chemistry strategy with literature precedence of introducing carboxylic acid functionality was applied to the salicylamide series of compounds. […] Surgically prepared animals were purchased from Charles River Laboratories, Raleigh, N.C. Animals were anesthetized on the day of experiment with isoflurane (1.8-4%). Blood pressure and heart rate data were collected on a Grass Polygraph recorder. The test articles, vehicle or protamine dosing preparations were administered once to each rat by a 10 minute intravenous infusion three minutes following a single intravenous injection of heparin (50 U/kg). Each animal received a dose volume of 2.0 mL/kg. Blood pressure was recorded prior to treatment for approximately 1 minute and immediately following heparin, immediately following vehicle, test articles or protamine and at 5, 15, 30, and 60 minutes following dosing. The doses of test agent were either 8 mg/kg or 16 mg/kg. The differences in hemodynamic effect at 16 mg/kg were especially profound (FIG. 5).

enoxaparin [14] = assay: Enoxaparin-extended bleeding times, rat tail transection model; assay type: in vivo; details: rat, enoxaparin 2 mg/kg IV, test agent 5 mg/kg IV
Experimental: Studies have now been done to examine effects on extended bleeding times caused by enoxaparin treatment. Male Sprague Dawley rats (Charles River) were administered 2 mg/kg enoxaparin by IV injection in the tail vein, followed 3 minutes later by test agent (IV, tail vein) at 2 and 5 mg/kg doses. Tails were then rapidly transected and bleeding time onto an absorbant pad was determined. Enoxaparin alone (no antagonist) extends bleeding time from 11 to 24 seconds.

enoxaparin [15] = assay: In vivo neutralization of enoxaparin in the rat
Experimental: Compounds were tested for their ability to neutralize enoxaparin coagulation inhibition in rats. Male Sprague-Dawley rats were used in this study (Charles River Laboratories). They were ten-weeks-old at the start of the study and their weights ranged from 319-362 g. Enoxaparin (2 mg/kg) was administered by IV injection to groups of six rats. After 3 min, saline, protamine or a test compound was administered by IV injection. Blood was collected before dosing with enoxaparin, and at 1, 3, 10, 30 and 60 min after dosing with the standard and test compounds. All treatments were dosed in a volume of 1 mL/kg. Blood was collected via the orbital sinus from three rats per group. At each time point, 1 mL of blood was collected from each animal into a single tube. The blood was analyzed using an AMEX Destiny Plus Coagulation Analyzer for activated partial thromboplastin time (APTT) and anti-Factor Xa (low-molecular weight).

[16] = at a concentration of greater than about 25 μg/mL

UFH (aPTT) EC50 [1] [µg/mL] | FONDAPX (FXa) EC50 (fondaparinux (FONDAPX)) [µg/mL] | ENOX (FXa) EC50 (enoxaparin (ENOX)) [µg/mL] | EC50 (Unfractionated heparin) | EC50 (enoxaparin [3]) | EC50 (fondaparinux [5]) | EC50 (UFH [9]) | EC50 (tinzaparin) | Structure (SMILES) | percent of the anticoagulant effect of enoxaparin inhibited (FXa amidolytic) (enoxaparin [2]) | EC50 at 1 h [4] [µg/mL] | EC50 at 1 h [6] [µg/mL] | EC50 [8] [µg/mL] | also measured
2.41 | 1.22 | 0.32 | – | – | – | – | – | COc1ccc(NC(=O)[C@@H](CCCNC(=N)N)NC(=O)c2cc(NC(=O)[C@@H](CCCNC(=N)N)NC(=O)c3cc(NC(=O)[C@@H](CCCNC(=N)N)NC(=O)c4cc(NC(=O)[C@@H](C)N)ccc4OC)ccc3OC)ccc2OC)cc1C(N)=O [Compound 16] | about 20% | – | – | – | –
– | – | – | 1700 nM and 1410 nM | 185 nM and 201 nM | 1560 nM and 1390 nM | 0.151 µM | 148 nM and 120 nM | COc1cc(OC)c(C(=O)N[C@H]2CC[C@H](NC(=O)c3ccc(OCCCCCN)cc3OCCCCCN)CC2)cc1C(=O)N[C@H]1CC[C@H](NC(=O)c2ccc(OCCCCCN)cc2OCCCCCN)CC1 [Compound 335] | – | 700 (≈ 679 µM) | 120 (≈ 116 µM) | > 1000 | neutralization of UFH activity in aPTT assays (UFH [7]): complete neutralization
2.26 | 6.19 | 0.29 | – | – | – | – | – | COc1ccc(NC(=O)[C@H](CCCCN)NC(=O)c2cc(NC(=O)[C@H](CCCCN)NC(=O)c3cc(NC(=O)[C@H](CCCCN)NC(=O)c4cc(NC(=O)[C@@H](N)CCCCN)ccc4OC)ccc3OC)ccc2OC)cc1C(N)=O [Compound 8] | about 60% | – | – | – | percent of the anticoagulant effect of UFH inhibited (FIIa amidolytic) (UFH [10]; [16]): 98%-100%; concentration antagonizing about 50% of the anticoagulant effect of UFH (FIIa amidolytic) (UFH [10]; human plasma): 14 to 20 µg/mL; percent of the anticoagulant effect of UFH inhibited (FXa amidolytic) (UFH [11]; [16]): 90%-100%; concentration antagonizing about 50% of the anticoagulant effect of UFH (FXa amidolytic) (UFH [11]; human plasma): 12 to 18 µg/mL
– | – | – | 2440 nM and 1840 nM and 3480 nM | 122 nM and 162 nM and 164 nM | 214 nM and 265 nM and 368 nM | 0.21 µM and 0.247 µM | 122 nM and 151 nM and 121 nM | COc1ccc(NC(=O)[C@H](CCCCN)NC(=O)c2cc(NC(=O)[C@H](CCCCN)NC(=O)c3cc(NC(=O)[C@H](CCCCN)NC(=O)c4cc(NC(=O)[C@@H](N)CCCCN)ccc4OC)ccc3OC)ccc2OC)cc1C(=O)N[C@@H](Cc1c[nH]c2ccccc12)C(=O)O [Compound 266] | – | 534 (≈ 407 µM) | 838 (≈ 638 µM) | > 1000 | reduction of Factor Xa (anti-factor Xa) levels after fondaparinux (fondaparinux [12]): effective at the higher 5 mg/kg dose; Cytotoxicity HepG2 EC50 (HepG2 cells): >1000 µg/mL; Potent LMWH-antagonists with superior anti-fondaparinux activity (summary) (fondaparinux [5]): superior anti-fondaparinux activity; Cytotoxicity 3T3 EC50 (NIH/3T3 cells): 848 µg/mL; coagulation properties via ROTEM [13]: normal coagulation properties at fully efficacious doses; hemodynamic response profile (blood pressure; anesthetized rat, 8 or 16 mg/kg 10 minute IV infusion after heparin 50 U/kg): superior to protamine; hemodynamic liabilities (summary) (blood pressure; rat, in vivo): reduced hemodynamic liabilities; neutralization of prolonged bleeding times (enoxaparin [14]): incomplete neutralization; in vivo efficacy versus LMWH by anti-factor Xa activity (summary) (enoxaparin [15]; compared with protamine): superior to protamine; neutralization of enoxaparin (aPTT and factor Xa assays, words) (enoxaparin [15]; rat, enoxaparin 2 mg/kg IV): completely neutralizes enoxaparin within minutes; hemolysis and cytotoxicity (summary) [8]: non-hemolytic and low cytotoxicity
